Test results published in ChEMBL document CHEMBL1641449, “A novel transition state analog inhibitor of guanase based on azepinomycin ring structure: Synthesis and biochemical assessment of enzyme inhibition” (Bioorg Med Chem Lett, 2011).

Biological target: T1, Guanine deaminase (Homo sapiens, UniProt Q9Y2T3)
T1 sequence (Q9Y2T3 whole entry): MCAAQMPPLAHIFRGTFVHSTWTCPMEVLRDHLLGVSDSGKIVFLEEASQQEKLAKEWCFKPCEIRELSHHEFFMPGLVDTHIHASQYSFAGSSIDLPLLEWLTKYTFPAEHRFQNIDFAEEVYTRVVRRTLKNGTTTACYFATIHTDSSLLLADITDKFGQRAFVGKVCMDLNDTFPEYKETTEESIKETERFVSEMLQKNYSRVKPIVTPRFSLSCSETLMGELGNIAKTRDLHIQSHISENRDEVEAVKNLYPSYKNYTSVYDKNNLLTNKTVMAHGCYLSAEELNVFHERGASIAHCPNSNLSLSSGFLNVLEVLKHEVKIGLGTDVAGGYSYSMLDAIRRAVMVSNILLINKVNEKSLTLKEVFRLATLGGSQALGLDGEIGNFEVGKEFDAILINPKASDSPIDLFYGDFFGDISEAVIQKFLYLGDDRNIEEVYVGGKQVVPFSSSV
Experiment: Competitive inhibition of guanase by Lineweaver-Burk plot analysis

Ki: 16.7 µM
Compound: O=C(NC1(CO)NC(=O)c2ncn(Cc3ccccc3)c2NC1=O)OCc1ccccc1 (stereo unspecified)
